# Where a name gives a salt, the structure may show the parent alone.
# Test: siRNA encapsulation in lipid nanoparticles (SYBR Gold)
# Type: physicochemical
# Settings: Table 2; FVII siRNA in LNP with the cationic lipid
# Description: The lipid nanoparticles (LNPs) were formed by mixing equal volumes of lipids dissolved in alcohol with siRNA dissolved in a citrate buffer by an impinging jet process. The lipid solution contains a cationic lipid compound of the invention, a helper lipid (cholesterol), an optional neutral lipid (DSPC) and a PEG (PEG) lipid at a concentration of 8-16 mg/mL with a target of 12 mg/mL in an alcohol. The siRNA to total lipid ratio is approximately 0.05 (wt/wt). Where a LNP formulation contains four lipid components, the molar ratios of the lipids ranges from 20 to 70 mole percent for the cationic lipid with a target of 40-60, the mole percent of helper lipid ranges from 20 to 70 with a target of 30 to 50, the mole percent of neutral lipid ranges from 0-30, the mole percent of PEG lipid has a range from 1 to 6 with a target of 2 to 5. The concentration of siRNA solution ranges from 0.7 to 1.0 mg/mL with a target of 0.8 to 0.9 mg/mL in a sodium citrate: sodium chloride buffer pH 4-6, with a target of 4.5-5.5. The LNPs are formed by mixing equal volumes of lipid solution in ethanol with siRNA dissolved in a citrate buffer by an impinging jet process through a mixing device with ID ranging from 0.25 to 2.0 mm at a flow rate from 10 to 640 mL/min. The mixed LNP solution is held at room temperature for 0-24 hrs prior to a dilution step. The solution is then concentrated and diafiltered with suitable buffer by ultrafiltration or dialysis process using membranes with a MW cutoff from 30 to 500 KD. The final product is sterile filtered and stored at 4° C.
# The lipid nanoparticles (LNPs) were formed by mixing equal volumes of lipids dissolved in alcohol with siRNA dissolved in a citrate buffer by an impinging jet process. The lipid solution contains a cationic lipid compound of the invention, a helper lipid (cholesterol), an optional neutral lipid (DSPC) and a stealth lipid (5010, S024, S027, or S031) at a concentration of 8-16 mg/mL with a target of 12 mg/mL in an alcohol. The siRNA to total lipid ratio is approximately 0.05 (wt/wt). Where a LNP formulation contains four lipid components, the molar ratios of the lipids ranges from 20 to 70 mole percent for the cationic lipid with a target of 40-60, the mole percent of helper lipid ranges from 20 to 70 with a target of 30 to 50, the mole percent of neutral lipid ranges from 0-30, the mole percent of PEG lipid has a range from 1 to 6 with a target of 2 to 5. The concentration of siRNA solution ranges from 0.7 to 1.0 mg/mL with a target of 0.8 to 0.9 mg/mL in a sodium citrate: sodium chloride buffer pH 4-6, with a target of 4.5-5.5. The LNPs are formed by mixing equal volumes of lipid solution in ethanol with siRNA dissolved in a citrate buffer by an impinging jet process through a mixing device with ID ranging from 0.25 to 2.0 mm at a flow rate from 10 to 640 mL/min. The mixed LNP solution is held at room temperature for 0-24 hrs prior to a dilution step. The solution is then concentrated and diafiltered with suitable buffer by ultrafiltration process using membranes with a MW cutoff from 30 to 500 KD. The final product is sterile filtered and stored at 4° C.
# SYBR Gold flourescence reagent is used for the determination of siRNA encapsulation in the DLP's. DLP's with and without triton x-100 are used to determine the free siRNA and total siRNA amounts. DLP's samples with and without triton X-100 were excited at 485 nm and flourescence emission is measured at 530 nm. Encapsulation efficiency is calculated based on the following formula: Encapsulation efficiency:[([…])/(total siRNA concentration)]×100% Encapsulation Data
row,SMILES,% encapsulation siRNA FVII
1,"CCCCCCCCCCCCC(COC(=O)CCC(OCC(CC)CCCC)OCC(CC)CCCC)OC(=O)OCCCN(CC)CC (stereo not drawn) [Example 48, 2-(((3-(diethylamino)propoxy)carbonyl)oxy)tetradecyl 4,4-bis((2-ethylhexyl)oxy)butanoate]",89.3%
2,"CCCCC/C=C\C/C=C\CCCCCCCCC(CCOC(=O)CCCCCCC/C=C\C/C=C\CCCCC)OC(=O)CCN(C)C (stereo not drawn) [Example 49, (9Z,12Z)-(12Z,15Z)-3-((3-(dimethylamino)propanoyl)oxy)henicosa-12,15-dien-1-yl octadeca-9,12-dienoate]",88.4%
3,"CCCCC/C=C\C/C=C\CCCCCCCCC(CCOC(=O)CC(CCCCCCCC)CCCCCCCC)OC(=O)CCCN(C)C (stereo not drawn) [Example 50, (12Z,15Z)-3-((4-(dimethylamino)butanoyl)oxy)henicosa-12,15-dien-1-yl 3-octylundecanoate, formate salt]",85.3%
4,"CCCCC/C=C\C/C=C\CCCCCCCCC(CCOC(=O)CCCC(CCCCCCC)CCCCCCC)OC(=O)CCCN(C)C (stereo not drawn) [Example 51, (12Z,15Z)-3-((4-(dimethylamino)butanoyl)oxy)henicosa-12,15-dien-1-yl 5-heptyldodecanoate]",89.2%
5,"CCCCC/C=C\C/C=C\CCCCCCCCC(CCOC(=O)CCCCCC(CCCCCC)CCCCCC)OC(=O)CCCN(C)C (stereo not drawn) [Example 52, (12Z,15Z)-3-((4-(dimethylamino)butanoyl)oxy)henicosa-12,15-dien-1-yl 7-hexyltridecanoate]",84.6%
6,"CCCCC/C=C\C/C=C\CCCCCCCCC(CCOC(=O)CCCCCCCC(CCCCC)CCCCC)OC(=O)CCCN(C)C (stereo not drawn) [Example 53, (12Z,15Z)-3-((4-(dimethylamino)butanoyl)oxy)henicosa-12,15-dien-1-yl 9-pentyltetradecanoate]",85.6%
7,"CCCCC/C=C\C/C=C\CCCCCCCCOC(=O)OCCC(CCCCCCCC/C=C\C/C=C\CCCCC)OC(=O)CCN(C)C (stereo not drawn) [Example 54, (12Z,15Z)-1-((((9Z,12Z)-octadeca-9,12-dien-1-yloxy)carbonyl)oxy)henicosa-12,15-dien-3-yl 3-(dimethylamino)propanoate]",88.6%
8,"CCCCC/C=C\C/C=C\CCCCCCCCC(COCCOC(=O)CCCCCCC/C=C\C/C=C\CCCCC)OC(=O)CCN(C)C (stereo not drawn) [Example 59, (9Z,12Z)-2-(((11Z,14Z)-2-((3-(dimethylamino)propanoyl)oxy)icosa-11,14-dien-1-yl)oxy)ethyl octadeca-9,12-dienoate]",90.2%
9,"CCCCC/C=C\C/C=C\CCCCCCCC(=O)OCCC(CCCCCCCCCCOC(=O)CCCCCCC)OC(=O)OCCCN(C)C (stereo not drawn) [Example 60, (9Z,12Z)-3-(((3-(dimethylamino)propoxy)carbonyl)oxy)-13-(octanoyloxy)tridecyl octadeca-9,12-dienoate]",82.4%
10,"CCCCCCCCC(CCCCCCCC)CC(=O)OCCC(CCCCCCCCCCOC(=O)CCCCCCC)OC(=O)OCCCN(C)C (stereo not drawn) [Example 61, 3-(((3-(dimethylamino)propoxy)carbonyl)oxy)-13-(octanoyloxy)tridecyl 3-octylundecanoate]",85.5%
11,"CCCCCCCC(CCCCCCC)CCCC(=O)OCCC(CCCCCCCCCCO)OC(=O)OCCCN(C)C (stereo not drawn) [Example 62, 3-(((3-(dimethylamino)propoxy)carbonyl)oxy)-13-hydroxytridecyl 5-heptyldodecanoate]",75.2%
12,"CCCCCCCC(=O)OCCCCCCCCCCC(CCOC(=O)CCCC(CCCCCCC)CCCCCCC)OC(=O)OCCCN(C)C (stereo not drawn) [Example 63, 3-(((3-(dimethylamino)propoxy)carbonyl)oxy)-13-(octanoyloxy)tridecyl 5-heptyldodecanoate]",85.6%
13,"CCCCCC(CCCCC)CCCCCCCC(=O)OCCC(CCCCCCCCCCO)OC(=O)OCCCN(C)C (stereo not drawn) [Example 65, 3-(((3-(dimethylamino)propoxy)carbonyl)oxy)-13-hydroxytridecyl 9-pentyltetradecanoate]",39.5%
14,"CCCCCCCC(=O)OCCCCCCCCCCC(CCOC(=O)CCCCCCCC(CCCCC)CCCCC)OC(=O)OCCCN(C)C (stereo not drawn) [Example 66, 3-(((3-(dimethylamino)propoxy)carbonyl)oxy)-13-(octanoyloxy)tridecyl 9-pentyltetradecanoate]",83.4%
15,"CCCCCCCCC(CCCCCCCC)CC(CCCCOC(=O)CCCCCCC)OC(=O)OCCCN(C)C (stereo not drawn) [Example 71, 5-(((3-(dimethylamino)propoxy)carbonyl)oxy)-7-octylpentadecyl octanoate]",86.7%
16,"CCCCC/C=C\C/C=C\CCCCCCCC(=O)OCCCCC(CC(CCCCCCCC)CCCCCCCC)OC(=O)OCCCN(C)C (stereo not drawn) [Example 72, (9Z,12Z)-5-(((3-(dimethylamino)propoxy)carbonyl)oxy)-7-octylpentadecyl octadeca-9,12-dienoate]",62.5%
17,"CCCCC/C=C\C/C=C\CCCCCCCC(=O)OCC(COC(=O)CCCCCCC/C=C\C/C=C\CCCCC)OC(=O)CCC(CCCCCCCCCCCC)OC(=O)OCCCN(CC)CC (stereo not drawn) [Example 81, (9Z,9′Z,12Z,12′Z)-2-((4-(((3-(diethylamino)propoxy)carbonyl)oxy)hexadecanoyl)oxy)propane-1,3-diyl bis(octadeca-9,12-dienoate)]",48.8%
18,"CCCCCCCCCCCCCC(=O)OCC(COC(=O)CCCCCCCCCCCCC)OC(=O)CCC(CCCCCCCCCCCC)OC(=O)OCCCN(C)C (stereo not drawn) [Example 85, 2-((4-(((3-(dimethylamino)propoxy)carbonyl)oxy)hexadecanoyl)oxy)propane-1,3-diyl ditetradecanoate]",85.7%
19,"CCCCCCCCCCCCC(CCC(=O)OC(COC(=O)CCCCCCCCCCC)COC(=O)CCCCCCCCCCC)OC(=O)OCCCN(C)C (stereo not drawn) [Example 87, 2-((4-(((3-(dimethylamino)propoxy)carbonyl)oxy)hexadecanoyl)oxy)propane-1,3-diyl didodecanoate]",77.5%
20,"CCCCCCCCCCCCC(CCC(=O)OC(COC(=O)CCCCCCCCC)COC(=O)CCCCCCCCC)OC(=O)OCCCN(CC)CC (stereo not drawn) [Example 90, 2-((4-(((3-(diethylamino)propoxy)carbonyl)oxy)hexadecanoyl)oxy)propane-1,3-diyl bis(decanoate)]",91.4%
21,"CCCCC/C=C\C/C=C\CCCCCCCCC(CCC(=O)OC(COC(=O)CCCCCCC)COC(=O)CCCCCCC)OC(=O)OCCCN(CC)CC (stereo not drawn) [Example 95, 2-(((13Z,16Z)-4-(((3-(diethylamino)propoxy)carbonyl)oxy)docosa-13,16-dienoyl)oxy)propane-1,3-diyl dioctanoate]",86.9%
